Experimental findings from patent publication US7605121B2, “Oligopeptide lyophilisate, their preparation and use” (AEterna Zentaris GmbH, priority 1993, dated 2009) are described below.

Data set [1] can be described thus: Hydrolysis of terminal amide group in acid medium. The note with it: acid medium (acetic acid solution). The class given is physicochemical. How it is done: (§1) The solution is then diluted to a final concentration of 3% peptide, e.g., cetrorelix, with water for injection purposes and mannitol is added. Although it is stated in the literature that the terminal amide group hydrolyzes easily in acid medium, this was not found in the case of cetrorelix. Solutions prepared according to this method caused no difficulties during filtration. The correct amounts of active substance were always found.

Data set [2] concerns endogenous hormone production (LH-FSH, oestradiol). In words: Suppression of endogenous hormone production in in-vitro fertilization treatment. The class given is in vivo, patients. The note with it: treatment over 5 days; female sterility / in-vitro fertilization. The source says: The premature LH peaks cannot arise and the frequency of hyperstimulation syndrome should be reduced. In addition, less HMG is used in the 2nd phase of therapy, the ovulation triggering phase. This gives this in-vitro fertilization treatment a not inconsiderable cost advantage. In-vitro fertilization is, for example, used when a tube anomaly is present. To perform this treatment it is necessary to precisely monitor the cycle and to establish the time of ovulation as precisely as possible. This has hitherto only been achieved to a limited extent since preovulatory LH increase often occurred too early due to simulation with HMG/HCG, or was not maintained for a sufficiently long period. Avoidance of this premature increase is, however, of critical importance for the success of the treatment in order to precisely determine the time of fertilization. This reduces the physical and mental burden on the patient and makes optimum use of hospital logistics. To achieve this objective with great reliability it is necessary to suppress endogenous hormone production (LH-FSH, oestradiol) as completely as possible in order to simultaneously stimulate follicle maturation through administration of exogenous gonadotrophins (HMG/HCG) and to monitor the hormone status at any time. […]

The nature of data set [3]: Dissolution in 30% volume/volume acetic acid. The class given is physicochemical. The method, then:
as §1

Data set [4] in a line: Stability of aqueous solution / conventional sterilization. The class given is physicochemical. How it is done: It should be possible to administer the active substance subcutaneously in a dose of 0.1 to 20 mg. Aqueous solutions of the decapeptide are unstable, and, therefore, autoclaving in the container used to distribute it is not possible. […] To obtain an injectable solution it was therefore necessary to develop a lyophilizate.

Where a SMILES comes first, the peptide text is derived from it. [ ]: non-standard residue; d: D form. dPhe(4-Cl) = N[C@H](Cc1ccc(Cl)cc1)C(=O)O; d2Nal = N[C@H](Cc1ccc2ccccc2c1)C(=O)O; dCit = NC(=O)NCCC[C@@H](N)C(=O)O; d3Pal = N[C@H](Cc1cccnc1)C(=O)O

As for `CC(=O)N[C@H](Cc1ccc2ccccc2c1)C(=O)N[C@H](Cc1ccc(Cl)cc1)C(=O)N[C@H](Cc1cccnc1)C(=O)N[C@@H](CO)C(=O)N[C@@H](Cc1ccc(O)cc1)C(=O)N[C@H](CCCNC(N)=O)C(=O)N[C@@H](CC(C)C)C(=O)N[C@@H](CCCNC(=N)N)C(=O)N1CCC[C@H]1C(=O)N[C@H](C)C(N)=O` [Cetrorelix] (Ac-[d2Nal][dPhe(4-Cl)][d3Pal]SY[dCit]LRP[dA]-NH2), the “Hydrolysis of terminal amide group” value in data set [1] is “not found”. Besides, the Suppression achieved result in data set [2] is given as “total suppression”. For the same molecule, the “Solubility in acetic acid” value in data set [3] is on record as “easily dissolved”. Further, the “Stability of aqueous solutions” value in data set [4] (aqueous solution, autoclaving in the container not possible) was “unstable”. Besides, the “Behaviour during conventional sterilization” value in data set [4] (conventional sterilization, prescribed conditions) is given as “tends to decompose”.
